# Results as given in US10597388B2, “Pyridazinone herbicides” (FMC CORPORATION, priority 2014, dated 2020).
# Key:
# Assay in all cases: Test E greenhouse herbicide test, pre- and postemergence
# Assay type in all cases: in vivo
# [1] = test system: Italian ryegrass (Lolium multiflorum)
# Text: (§1) Seeds of plant species selected from corn (Zea mays), soybean (Glycine max), velvetleaf (Abutilon theophrasti), lambsquarters (Chenopodium album), wild poinsettia (Euphorbia heterophylla), pigweed, palmer (palmer pigweed, Amaranthus palmeri), waterhemp (common waterhemp, Amaranthus rudis), surinam grass (Brachiaria decumbens), crabgrass, large (large crabgrass, Digitaria sanguinalis), crabgrass, Brazilian (Brazilian crabgrass, Digitaria horizontalis), panicum, fall (fall panicum, Panicum dichotomiflorum), foxtail, giant (giant foxtail, Setaria faberii), foxtail, green (green foxtail, Setaria viridis), goosegrass (Eleusine indica), johnsongrass (Sorghum halepense), ragweed (common ragweed, Ambrosia elatior), barnyardgrass (Echinochloa crus-galli), sandbur (southem sandbur, Cenchrus echinatus), arrowleaf sida (Sida rhombifolia), Italian ryegrass (Lolium multiflorum), dayflower (Virginia (VA) dayflower, Commelina virginica), field bindweed (Convolvulus arvensis), momingglory (Ipomoea coccinea), nightshade (eastern black nightshade, Solanum ptycanthum), kochia (Kochia scoparia), nutsedge, yellow (yellow nutsedge, Cyperus esculentus), horseweed (Conyza canadensis), and beggarticks (hairy beggarticks, Bidens pilosa), were planted into a silt loam soil and treated preemergence with test chemicals formulated in a non-phytotoxic solvent mixture which included a surfactant.
# (§2) At the same time, plants from these crop and weed species and also waterhemp_RES1, (ALS & Triazine resistant common waterhemp, Amaranthus rudis), and waterhemp_RES2, (ALS & HPPD resistant common waterhemp, Amaranthus rudis) were planted in pots containing Redi-Earth® planting medium (Scotts Company, 14111 Scottslawn Road, Marysville, Ohio 43041) comprising spaghnum peat moss, vermiculite, wetting agent and starter nutrients were treated with postemergence applications of test chemicals formulated in the same manner. Plants ranged in height from 2 to 18 cm for postemergence treatments (1- to 4-leaf stage). Treated plants and controls were maintained in a greenhouse for 14 to 21 d, after which time all species were compared to controls and visually evaluated. Plant response ratings, summarized in Table E, are based on a scale of 0 to 100 where 0 is no effect and 100 is complete control. A dash (-) response means no test result.
# [2] = test system: arrowleaf sida (Sida rhombifolia)
# Text: as §1, §2
# [3] = test system: barnyardgrass (Echinochloa crus-galli)
# Text: as §1, §2
# corn (Zea mays) = test system: corn (Zea mays)
# Text: as §1, §2
# [4] = test system: crabgrass, Brazilian (Brazilian crabgrass, Digitaria horizontalis)
# Text: as §1, §2
# [5] = test system: crabgrass, large (large crabgrass, Digitaria sanguinalis); details: Preemergence
# Text: as §1, §2
# [6] = test system: foxtail, giant (giant foxtail, Setaria faberii); details: Preemergence
# Text: as §1, §2
# [7] = test system: foxtail, green (green foxtail, Setaria viridis); details: Preemergence
# Text: as §1, §2
# [8] = test system: goosegrass (Eleusine indica); details: Preemergence
# Text: as §1, §2
# kochia (Kochia scoparia) = details: Preemergence
# Text: as §1, §2
# [9] = test system: lambsquarters (Chenopodium album); details: Preemergence
# Text: as §1, §2
# [10] = test system: nightshade (eastern black nightshade, Solanum ptycanthum); details: Preemergence
# Text: as §1, §2
# [11] = test system: panicum, fall (fall panicum, Panicum dichotomiflorum)
# Text: as §1, §2
# [12] = test system: sandbur (southem sandbur, Cenchrus echinatus)
# Text: as §1, §2
# [13] = test system: surinam grass (Brachiaria decumbens); details: Preemergence
# Text: as §1, §2
# [14] = test system: velvetleaf (Abutilon theophrasti); details: Preemergence
# Text: as §1, §2
# [15] = 62 g ai/ha, Postemergence, scale 0 to 100 (0 no effect, 100 complete control)
# [16] = 62 g ai/ha, Preemergence, scale 0 to 100 (0 no effect, 100 complete control)
# [17] = 125 g ai/ha, Postemergence, scale 0 to 100 (0 no effect, 100 complete control)
# [18] = 125 g ai/ha, Preemergence, scale 0 to 100 (0 no effect, 100 complete control)
# [19] = 250 g ai/ha, Postemergence, scale 0 to 100 (0 no effect, 100 complete control)
# [20] = Postemergence, 16 g ai/ha, visual, scale 0 no effect to 100 complete control
# [21] = Postemergence, 31 g ai/ha, visual, scale 0 no effect to 100 complete control
# [22] = Preemergence, 16 g ai/ha, scale 0 to 100, 0 no effect, 100 complete control
# [23] = Preemergence, 31 g ai/ha, scale 0 to 100, 0 no effect, 100 complete control
# [24] = Preemergence, 250 g ai/ha, visual, scale 0 no effect to 100 complete control
# [25] = Preemergence, 125 g ai/ha, visual, scale 0 no effect to 100 complete control
# [26] = 62 g ai/ha, scale 0 to 100 (0 no effect, 100 complete control)
# [27] = 16 g ai/ha, scale 0 to 100, 0 no effect, 100 complete control
# [28] = 31 g ai/ha, scale 0 to 100, 0 no effect, 100 complete control
# [29] = 125 g ai/ha, visual, scale 0 no effect to 100 complete control
# [30] = 250 g ai/ha, visual, scale 0 no effect to 100 complete control
# [31] = 125 g ai/ha, scale 0 to 100 (0 no effect, 100 complete control)
smiles,measurement,setting,value
"Cc1ccc2sc(C)c(-c3c(O)c(C)nn(C)c3=O)c2c1 [Compound 1, 4-(2,5-dimethylbenzo[b]thien-3-yl)-5-hydroxy-2,6-dimethyl-3(2H)-pyridazinone]","Plant response rating, Ryegrass, Italian",[1]; [15],50
same,"Plant response rating, Ryegrass, Italian",[1]; [16],100
same,"Plant response rating, Ryegrass, Italian",[1]; [17],65
same,"Plant response rating, Ryegrass, Italian",[1]; [18],100
same,"Plant response rating, Ryegrass, Italian",[1]; [19],90
same,"Plant response rating, Ryegrass, Italian",[1]; [20],20
same,"Plant response rating, Ryegrass, Italian",[1]; [21],35
same,"Plant response rating, Ryegrass, Italian",[1]; [22],70
same,"Plant response rating, Ryegrass, Italian",[1]; [23],95
same,"Plant response rating, Ryegrass, Italian",[1]; [24],100
same,"Plant response rating, Arrowleaf Sida",[2]; [15],70
same,"Plant response rating, Arrowleaf Sida",[2]; [16],65
same,"Plant response rating, Arrowleaf Sida",[2]; [17],70
same,"Plant response rating, Arrowleaf Sida",[2]; [19],80
same,"Plant response rating, Arrowleaf Sida",[2]; [20],30
same,"Plant response rating, Arrowleaf Sida",[2]; [21],50
same,"Plant response rating, Arrowleaf Sida",[2]; [22],0
same,"Plant response rating, Arrowleaf Sida",[2]; [23],0
same,"Plant response rating, Arrowleaf Sida",[2]; [25],75
same,"Plant response rating, Arrowleaf Sida",[2]; [24],80
same,"Plant response rating, Barnyardgrass",[3]; [15],20
same,"Plant response rating, Barnyardgrass",[3]; [16],0
same,"Plant response rating, Barnyardgrass",[3]; [17],25
same,"Plant response rating, Barnyardgrass",[3]; [19],35
same,"Plant response rating, Barnyardgrass",[3]; [20],10
same,"Plant response rating, Barnyardgrass",[3]; [21],15
same,"Plant response rating, Barnyardgrass",[3]; [22],0
same,"Plant response rating, Barnyardgrass",[3]; [23],0
same,"Plant response rating, Barnyardgrass",[3]; [25],0
same,"Plant response rating, Barnyardgrass",[3]; [24],20
same,"Plant response rating, Corn",corn (Zea mays); [15],5
same,"Plant response rating, Corn",corn (Zea mays); [16],0
same,"Plant response rating, Corn",corn (Zea mays); [17],5
same,"Plant response rating, Corn",corn (Zea mays); [19],5
same,"Plant response rating, Corn",corn (Zea mays); [20],0
same,"Plant response rating, Corn",corn (Zea mays); [21],5
same,"Plant response rating, Corn",corn (Zea mays); [22],0
same,"Plant response rating, Corn",corn (Zea mays); [23],0
same,"Plant response rating, Corn",corn (Zea mays); [25],0
same,"Plant response rating, Corn",corn (Zea mays); [24],0
same,"Plant response rating, Crabgrass, Brazil",[4]; [15],15
same,"Plant response rating, Crabgrass, Brazil",[4]; [16],80
same,"Plant response rating, Crabgrass, Brazil",[4]; [17],20
same,"Plant response rating, Crabgrass, Brazil",[4]; [19],35
same,"Plant response rating, Crabgrass, Brazil",[4]; [20],0
same,"Plant response rating, Crabgrass, Brazil",[4]; [21],15
same,"Plant response rating, Crabgrass, Brazil",[4]; [22],0
same,"Plant response rating, Crabgrass, Brazil",[4]; [23],10
same,"Plant response rating, Crabgrass, Brazil",[4]; [25],100
same,"Plant response rating, Crabgrass, Brazil",[4]; [24],100
same,"Plant response rating, Crabgrass, Large",[5]; [26],20
same,"Plant response rating, Crabgrass, Large",[5]; [27],0
same,"Plant response rating, Crabgrass, Large",[5]; [28],0
same,"Plant response rating, Crabgrass, Large",[5]; [29],35
same,"Plant response rating, Crabgrass, Large",[5]; [30],65
same,"Plant response rating, Foxtail, Giant",[6]; [26],35
same,"Plant response rating, Foxtail, Giant",[6]; [27],0
same,"Plant response rating, Foxtail, Giant",[6]; [28],50
same,"Plant response rating, Foxtail, Giant",[6]; [29],95
same,"Plant response rating, Foxtail, Giant",[6]; [30],98
same,"Plant response rating, Foxtail, Green",[7]; [26],70
same,"Plant response rating, Foxtail, Green",[7]; [27],0
same,"Plant response rating, Foxtail, Green",[7]; [28],15
same,"Plant response rating, Foxtail, Green",[7]; [29],90
same,"Plant response rating, Foxtail, Green",[7]; [30],90
same,"Plant response rating, Goosegrass",[8]; [26],5
same,"Plant response rating, Goosegrass",[8]; [27],0
same,"Plant response rating, Goosegrass",[8]; [28],15
same,"Plant response rating, Goosegrass",[8]; [29],35
same,"Plant response rating, Goosegrass",[8]; [30],25
same,"Plant response rating, Kochia",kochia (Kochia scoparia); [26],5
same,"Plant response rating, Kochia",kochia (Kochia scoparia); [27],0
same,"Plant response rating, Kochia",kochia (Kochia scoparia); [28],0
same,"Plant response rating, Kochia",kochia (Kochia scoparia); [29],35
same,"Plant response rating, Kochia",kochia (Kochia scoparia); [30],85
same,"Plant response rating, Lambsquarters",[9]; [26],98
same,"Plant response rating, Lambsquarters",[9]; [27],65
same,"Plant response rating, Lambsquarters",[9]; [28],65
same,"Plant response rating, Lambsquarters",[9]; [29],100
same,"Plant response rating, Lambsquarters",[9]; [30],100
same,"Plant response rating, Nightshade",[10]; [26],95
same,"Plant response rating, Nightshade",[10]; [31],100
same,"Plant response rating, Nightshade",[10]; [27],80
same,"Plant response rating, Nightshade",[10]; [28],90
same,"Plant response rating, Nightshade",[10]; [30],100
same,"Plant response rating, Panicum, Fall",[11]; [15],75
same,"Plant response rating, Panicum, Fall",[11]; [16],90
same,"Plant response rating, Panicum, Fall",[11]; [17],80
same,"Plant response rating, Panicum, Fall",[11]; [18],95
same,"Plant response rating, Panicum, Fall",[11]; [19],85
same,"Plant response rating, Panicum, Fall",[11]; [20],70
same,"Plant response rating, Panicum, Fall",[11]; [21],75
same,"Plant response rating, Panicum, Fall",[11]; [22],65
same,"Plant response rating, Panicum, Fall",[11]; [23],75
same,"Plant response rating, Panicum, Fall",[11]; [24],100
same,"Plant response rating, Sandbur",[12]; [15],30
same,"Plant response rating, Sandbur",[12]; [16],20
same,"Plant response rating, Sandbur",[12]; [17],30
same,"Plant response rating, Sandbur",[12]; [18],70
same,"Plant response rating, Sandbur",[12]; [19],30
same,"Plant response rating, Sandbur",[12]; [20],0
same,"Plant response rating, Sandbur",[12]; [21],10
same,"Plant response rating, Sandbur",[12]; [22],0
same,"Plant response rating, Sandbur",[12]; [23],10
same,"Plant response rating, Sandbur",[12]; [24],70
same,"Plant response rating, Surinam Grass",[13]; [26],50
same,"Plant response rating, Surinam Grass",[13]; [31],80
same,"Plant response rating, Surinam Grass",[13]; [27],0
same,"Plant response rating, Surinam Grass",[13]; [28],25
same,"Plant response rating, Surinam Grass",[13]; [30],75
same,"Plant response rating, Velvetleaf",[14]; [26],75
same,"Plant response rating, Velvetleaf",[14]; [31],90
same,"Plant response rating, Velvetleaf",[14]; [27],35
same,"Plant response rating, Velvetleaf",[14]; [28],75
same,"Plant response rating, Velvetleaf",[14]; [30],98
